Some results are limits rather than exact numbers.

In the assay the target is PD-1/PD-L1 protein/protein interaction (Homo sapiens (Human), UniProt Q9NZQ7). Briefly: PD-1/PD-L1 Homogeneous Time-Resolved Fluorescence (HTRF) Binding Assay. The following applies: recombinant human PD-L1 (19-238)-His and PD-1 (25-167)-Fc, 25° C., PBS pH 7.4. The method, then: Example A. PD-1/PD-L1 Homogeneous Time-Resolved Fluorescence (HTRF) Binding Assay
Chain of PD-1/PD-L1 protein/protein interaction (Q9NZQ7 19-238): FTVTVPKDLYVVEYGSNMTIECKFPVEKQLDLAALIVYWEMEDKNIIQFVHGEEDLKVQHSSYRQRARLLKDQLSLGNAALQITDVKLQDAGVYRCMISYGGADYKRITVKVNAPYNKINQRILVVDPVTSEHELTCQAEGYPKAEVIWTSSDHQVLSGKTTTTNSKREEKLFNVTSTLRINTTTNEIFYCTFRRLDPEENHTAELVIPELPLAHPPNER
The assays were conducted in a standard black 384-well polystyrene plate with a final volume of 20 μL. Inhibitors were first serially diluted in DMSO and then added to the plate wells before the addition of other reaction components. The final concentration of DMSO in the assay was 1%. The assays were carried out at 25° C. in the PBS buffer (pH 7.4) with 0.05% Tween-20 and 0.1% BSA. Recombinant human PD-L1 protein (19-238) with a His-tag at the C-terminus was purchased from AcroBiosystems (PD1-H5229). Recombinant human PD-1 protein (25-167) with Fc tag at the C-terminus was also purchased from AcroBiosystems (PD1-H5257). PD-L1 and PD-1 proteins were diluted in the assay buffer and 10 μL was added to the plate well. Plates were centrifuged and proteins were preincubated with inhibitors for 40 minutes. The incubation was followed by the addition of 10 μL of HTRF detection buffer supplemented with Europium cryptate-labeled anti-human IgG (PerkinElmer-AD0212) specific for Fc and anti-His antibody conjugated to SureLight®-Allophycocyanin (APC, PerkinElmer-AD0059H). After centrifugation, the plate was incubated at 25° C. for 60 min. before reading on a PHERAstar FS plate reader (665 nm/620 nm ratio). Final concentrations in the assay were […], 10 nM PD-L1, 1 nM europium anti-human IgG and 20 nM anti-His-Allophycocyanin. IC50 determination was performed by fitting the curve of percent control activity versus the log of the inhibitor concentration using the GraphPad Prism 5.0 software.
For `Cc1c(-c2ccccc2)cccc1-c1cn2nc(CNCC#N)cnc2n1` [Example 6, 2-((6-(2-methylbiphenyl-3-yl)imidazo[1,2-b][1,2,4]triazin-2-yl)methylamino)acetonitrile], the IC50 was 100 to 500 nM.

Regarding `Cc1c(-c2ccccc2)cccc1-c1cn2nc(CNCC(N)=O)cnc2n1` [Example 7, 2-((6-(2-methylbiphenyl-3-yl)imidazo[1,2-b][1,2,4]triazin-2-yl)methylamino)acetamide], the IC50 was 100 to 500 nM.

Take `COCCNc1cc(CNCCO)cn2nc(-c3cccc(-c4ccccc4)c3C)nc12` [Example 22, 2-({[8-[(2-methoxyethyl)amino]-2-(2-methylbiphenyl-3-yl)[1,2,4]triazolo[1,5-a]pyridin-6-yl]methyl}amino)ethanol]: the IC50 was 100 to 500 nM.

For the compound `N#CCc1cc(CNCCO)cn2nc(-c3cccc(-c4ccc5c(c4)OCCO5)c3C#N)nc12` [Example 27, 2-(8-(cyanomethyl)-6-{[(2-hydroxyethyl)amino]methyl}[1,2,4]triazolo[1,5-a]pyridin-2-yl)-6-(2,3-dihydro-1,4-benzodioxin-6-yl)benzonitrile], the IC50 was not above 100 nM.

Take `Cc1c(-c2ccccc2)cccc1-c1cn2cc(CNCCO)cc(C)c2n1` [Example 9, 2-((8-methyl-2-(2-methylbiphenyl-3-yl)imidazo[1,2-a]pyridin-6-yl)methylamino)ethanol]: the IC50 lay in the range of 100 to 500 nM.

In the case of `Cc1c(-c2ccccc2)cccc1-c1cn2nc(CNCCO)ccc2n1` [Example 15, 2-({[2-(2-methylbiphenyl-3-yl)imidazo[1,2-b]pyridazin-6-yl]methyl}amino)ethanol], the IC50 fell in the range of 100 to 500 nM.

`Cc1c(-c2ccccc2)cccc1-c1cn2cc(CNCCO)ccc2n1` [Example 1, 2-({[2-(2-methylbiphenyl-3-yl)imidazo[1,2-a]pyridin-6-yl]methyl}amino)ethanol]: the half-inhibitory concentration (IC50) lay in the range of 100 to 500 nM.

On to `Cc1c(-c2ccccc2)cccc1-c1nc2c(Cl)cc(CNCCO)cn2n1` [Example 21, 2-({[8-chloro-2-(2-methylbiphenyl-3-yl)-[1,2,4]triazolo[1,5-a]pyridin-6-yl]methyl}amino)ethanol], for which the IC50 was not above 100 nM.

For `N#Cc1c(-c2ccc3c(c2)OCCO3)cccc1-c1nc2c(Cl)cc(CNCCO)cn2n1` [Example 25, 2-(8-chloro-6-{[(2-hydroxyethyl)amino]methyl}[1,2,4]triazolo[1,5-a]pyridin-2-yl)-6-(2,3-dihydro-1,4-benzodioxin-6-yl)benzonitrile], the IC50 was not above 100 nM.

Take `Cc1c(-c2ccccc2)cccc1-c1nc2cc(CNCCO)nc(C)n2n1` [Example 20, 2-({[5-methyl-2-(2-methylbiphenyl-3-yl)[1,2,4]triazolo[1,5-c]pyrimidin-7-yl]methyl}amino)ethanol]: the IC50 is not above 100 nM.

As to `Cc1c(-c2ccccc2)cccc1-c1nc2ccc(CN3CCCC[C@H]3C(=O)O)cn2n1` [Example 19, (2S)-1-{[2-(2-methylbiphenyl-3-yl)[1,2,4]triazolo[1,5-a]pyridin-6-yl]methyl}piperidine-2-carboxylic acid], the IC50 fell in the range of 100 to 500 nM.

Turning to `Cc1c(-c2ccccc2)cccc1-c1nc2c(CC#N)cc(CNCCO)cn2n1` [Example 24, [6-{[(2-hydroxyethyl)amino]methyl}-2-(2-methylbiphenyl-3-yl)[1,2,4]triazolo[1,5-a]pyridin-8-yl]acetonitrile], the IC50 is not above 100 nM.

`Cc1c(-c2ccccc2)cccc1-c1nc2ccc(CNCCO)cn2n1` [Example 18, 2-({[2-(2-methylbiphenyl-3-yl)[1,2,4]triazolo[1,5-a]pyridin-6-yl]methyl}amino)ethanol]: the 50% inhibitory concentration (IC50) is not above 100 nM.

Consider `Cc1c(-c2ccccc2)cccc1-c1nc2cc(CN3CCCC[C@H]3C(=O)O)ccn2n1` [Example 17, (2S)-1-{[2-(2-methylbiphenyl-3-yl)[1,2,4]triazolo[1,5-a]pyridin-7-yl]methyl}piperidine-2-carboxylic acid], for which the IC50 is 100 to 500 nM.

Turning to `Cc1c(-c2ccccc2)cccc1-c1cn2cc(CNCCO)cc(Cl)c2n1` [Example 11, 2-((8-chloro-2-(2-methylbiphenyl-3-yl)imidazo[1,2-a]pyridin-6-yl)methylamino)ethanol], the IC50 lay within 100 to 500 nM.

In the case of `Cc1c(-c2ccccc2)cccc1-c1cn2nc(CN(C)CCO)cnc2n1` [Example 8, 2-(methyl((6-(2-methylbiphenyl-3-yl)imidazo[1,2-b][1,2,4]triazin-2-yl)methyl)amino)ethanol], the IC50 fell in the range of 100 to 500 nM.

As to `Cc1c(-c2ccccc2)cccc1-c1nc2cc(CNCCO)ccn2n1` [Example 16, 2-({[2-(2-methylbiphenyl-3-yl)[1,2,4]triazolo[1,5-a]pyridin-7-yl]methyl}amino)ethanol], the IC50 is not above 100 nM.

As to `Cc1c(-c2ccccc2)cccc1-c1cn2cc(CNCCO)ncc2n1` [Example 13, 2-({[2-(2-methylbiphenyl-3-yl)imidazo[1,2-a]pyrazin-6-yl]methyl}amino)ethanol], the half-maximal inhibitory concentration (IC50) was not above 100 nM.

On to `N#Cc1c(-c2ccc3c(c2)OCCO3)cccc1-c1nc2c(C#N)cc(CNCCO)cn2n1` [Example 26, 2-[2-cyano-3-(2,3-dihydro-1,4-benzodioxin-6-yl)phenyl]-6-{[(2-hydroxyethyl)amino]methyl}[1,2,4]triazolo[1,5-a]pyridine-8-carbonitrile], for which the half-maximal inhibitory concentration (IC50) is not above 100 nM.

On to `Cc1c(-c2ccccc2)cccc1-c1cn2nc(CN3CCCC[C@H]3C(=O)O)ccc2n1` [Example 14, (S)-1-((2-(2-methylbiphenyl-3-yl)imidazo[1,2-b]pyridazin-6-yl)methyl)piperidine-2-carboxylic acid], for which the IC50 fell in the range of 500 to 10000 nM.

Consider `Cc1c(-c2ccccc2)cccc1-c1cc2cc(CN3CCCC[C@H]3C(=O)O)ncn2c1` [Example 4, (2S)-1-{[6-(2-methylbiphenyl-3-yl)pyrrolo[1,2-c]pyrimidin-3-yl]methyl}piperidine-2-carboxylic acid], for which the IC50 was 500 to 10000 nM.

Consider `Cc1c(-c2ccccc2)cccc1-c1cc2cc(CN3CCCC[C@H]3C(=O)O)ccn2c1` [Example 3, (2S)-1-{[2-(2-methylbiphenyl-3-yl)indolizin-7-yl]methyl}piperidine-2-carboxylic acid], for which the half-inhibitory concentration (IC50) was in the range of 100 to 500 nM.

`Cc1c(-c2ccccc2)cccc1-c1nc2c(CCCC#N)cc(CNCCO)cn2n1` [Example 23, 4-[6-{[(2-hydroxyethyl)amino]methyl}-2-(2-methylbiphenyl-3-yl)[1,2,4]triazolo[1,5-a]pyridin-8-yl]butanenitrile]: the IC50 is not above 100 nM.

Take `Cc1c(-c2ccccc2)cccc1-c1cn2cc(CN3CCCC[C@H]3C(=O)O)cc(C)c2n1` [Example 10, (S)-1-((8-methyl-2-(2-methylbiphenyl-3-yl)imidazo[1,2-a]pyridin-6-yl)methyl)piperidine-2-carboxylic acid]: the IC50 was 100 to 500 nM.

In the case of `Cc1c(-c2ccccc2)cccc1-c1cc2cc(CNCCO)ccn2c1` [Example 2, 2-({[2-(2-methylbiphenyl-3-yl)indolizin-7-yl]methyl}amino)ethanol], the IC50 was 100 to 500 nM.

Turning to `Cc1c(-c2ccccc2)cccc1-c1cn2cc(CNCCO)cnc2n1` [Example 12, 2-({[2-(2-methylbiphenyl-3-yl)imidazo[1,2-a]pyrimidin-6-yl]methyl}amino)ethanol], the IC50 lay within 100 to 500 nM.

With `Cc1c(-c2ccccc2)cccc1-c1cn2nc(CNCCO)cnc2n1` [Example 5, 2-((6-(2-methylbiphenyl-3-yl)imidazo[1,2-b][1,2,4]triazin-2-yl)methylamino)ethanol], the IC50 was not above 100 nM.

Values taken from US11407749B2, “Heterocyclic compounds as immunomodulators” (Incyte Corporation, priority 2015, dated 2022).
